From patent EP4032896A1, “THIAZOLOPYRIMIDONES AS INHIBITORS OF DDR1/2 AND THERAPEUTIC USES THEREOF” (Fundación del Sector Público Estatal Centro Nacional de …, priority 2021, dated 2022) come the findings set out here.

Test [1] addresses T1, DDR1 (Homo sapiens, UniProt Q08345).
T1 construct: The enzymes were purchased as a catalytic domain GST Tag DDR1(#PR6913A); purchased ThermoFisher PR6913A
As to the kind of experiment: LanthaScreen Eu-Kinase Binding Assay (TR-FRET tracer displacement), DDR1. The settings on record: catalytic domain GST Tag DDR1; Kinase Tracer 178. An excerpt: (§1) DDR1/2 binding assay: The binding assay relies on the LanthaScreen ™ Eu-Kinase Binding Assay (ThermoFisher Scientfic). This is a kinase assay platform based on measuring the binding and displacement of an Alexa Fluor® conjugate of an ATP-competitive kinase inhibitor or tracer at a kinase active site (Kinase Tracer 178. #PV5593). Binding of the tracer to the kinase is detected by addition of a europium (Eu)-labeled anti-GST antibody (#PV 5594) which specifically labels the kinase of interest. This binding results in a high degree of fluorescence resonance energy transfer (FRET), whereas displacement of the tracer with a kinase inhibitor results in a loss of FRET. The enzymes were purchased as a catalytic domain GST Tag DDR1(#PR6913A) and DDR2 (#PR7167A) from ThermoFisher. Assay conditions were as indicated by the kit manufacturers. Assays were performed in 384-well plates. The final read out was generated using an EnVision plate reader (Perkin-Elmer). The emission ratio was calculated by dividing the acceptor/tracer emission (665 nm) by the antibody/donor emission (615 nm). Values were plotted against the inhibitor concentration and fit to a sigmoid dose-response curve using Activity base by IDBS software.
For orientation: TR-FRET usually uses a lanthanide donor and a delayed reading to cut background.

The target in test [2] is T2, DDR1 (Mus musculus, UniProt Q03146).
T2 construct: expressed in transfected cells; host or cells: HEK293T
T2 sequence (Q03146 20-911): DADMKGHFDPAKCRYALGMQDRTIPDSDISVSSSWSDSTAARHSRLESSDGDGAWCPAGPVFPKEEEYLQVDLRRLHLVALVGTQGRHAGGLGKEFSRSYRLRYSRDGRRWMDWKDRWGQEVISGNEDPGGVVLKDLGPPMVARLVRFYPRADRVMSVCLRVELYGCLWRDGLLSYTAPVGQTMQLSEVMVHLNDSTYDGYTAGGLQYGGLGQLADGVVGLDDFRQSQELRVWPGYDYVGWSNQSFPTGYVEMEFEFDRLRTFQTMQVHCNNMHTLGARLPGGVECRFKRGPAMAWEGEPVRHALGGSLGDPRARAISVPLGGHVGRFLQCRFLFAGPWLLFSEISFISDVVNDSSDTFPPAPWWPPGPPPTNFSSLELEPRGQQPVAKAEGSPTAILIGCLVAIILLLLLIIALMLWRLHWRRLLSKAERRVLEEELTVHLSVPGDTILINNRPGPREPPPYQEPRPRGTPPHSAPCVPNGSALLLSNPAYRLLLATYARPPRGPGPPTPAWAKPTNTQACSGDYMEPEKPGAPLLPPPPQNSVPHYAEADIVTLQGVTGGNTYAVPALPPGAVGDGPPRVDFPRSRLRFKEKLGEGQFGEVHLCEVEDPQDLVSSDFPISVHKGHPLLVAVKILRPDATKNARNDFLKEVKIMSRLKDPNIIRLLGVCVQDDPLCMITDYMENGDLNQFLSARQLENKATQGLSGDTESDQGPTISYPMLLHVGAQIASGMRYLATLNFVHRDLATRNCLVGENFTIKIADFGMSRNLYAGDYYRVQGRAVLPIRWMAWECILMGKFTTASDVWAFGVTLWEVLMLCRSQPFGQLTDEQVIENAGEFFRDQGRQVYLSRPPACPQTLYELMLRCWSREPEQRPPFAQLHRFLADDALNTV
As to the kind of experiment: Cellular assay: inhibition of Collagen I-induced DDR1 autophosphorylation in HEK293T cells transiently transfected with DDR1 plasmid (Western blot). It counts as cell-based, human. The settings on record: pcDNA3.1 DDR1 WT mouse plasmid, compound 1 h, then 10 µg/mL Collagen I 1 h, P-DDR1 (Y513), read-out: pDDR1 EC50. As for the experimental part: DDR1/2 cellular assay: Transient transfection of HEK293T cells with DDR1 plasmid is used to study the inhibition of the autophosphorylation of DDR1 induced by Collagen I in cells. HEK293T are seeded, 6x10^5 cells per well in 6-well plates and incubated for 6 h at 37 °C, 5% CO2. Then, cells are transfected using Effectene reactive (Quiagen) with pcDNA3.1 DDR1 WT mouse plasmid. Cells are incubated with transfection complexes under normal growth conditions for 24 h. After that, medium is replaced with fresh medium and cells are incubated for an additional 18 h. Eight serial 1:3 compound dilutions are made in DMSO. The compounds are added to each well of 6 well cell plates and are incubated at 37 °C under CO2 atmosphere 1 h. DDR1's autophosphorylation is stimulated by 1h treatment with 10 µg/mL Collagen I. Then, cells are washed in PBS, lyse adding 100 µl of complete RIPA protein lysis buffer (RIPA Buffer, 1 mM DTT, 5 mM Bezamidine, 10 µg/mL Aprotinin, 10 µg/mL Leupeptin, 710 ng/mL Pepstatin A, 100 µg/mL Trypsin Inhibitor, 40 µg/mL Bestatin, completed with PhosSTOP EASYpack and complete Mini, EDTA-free) and incubated 20 minutes at 4 °C and then centrifugated. Lysates are kept at -80 °C. The protein content of the lysates is determined by DC protein assay (Biorad, Ref. 5000116). The proteins are resolved by SDS-PAGE and transferred to nitrocellulose membrane (GE Healthcare #10600003). The membranes are incubated overnight at 4 °C with antibodies specific for DDR1 (D1G6) (Cell signaling #5583), P-DDR1 (Y513) (E1N8F) (Cell Signaling # 14531) they are washed and then incubated with Alexa Fluor 680 goat anti-rabbit IgG secondary antibodies (Invitrogen, A21076). The bands are visualized and quantified using an Odyssey infrared imaging system (Li-Cor Biosciences). The percentage of DDR1 phosphorylation is finally plotted against concentration for each compound and EC50s for intracellular DDR1 inhibition are calculated using ActivityBase from IDBS.
In general terms: Immunoblotting shows a protein as a band on a membrane.

Test [3] deals with T3, DDR2 (Homo sapiens, UniProt Q16832).
T3 construct: The enzymes were purchased as a catalytic domain GST Tag DDR1(#PR6913A) and DDR2 (#PR7167A); purchased ThermoFisher PR7167A
T3 sequence (Q16832 563-849 limits assumed): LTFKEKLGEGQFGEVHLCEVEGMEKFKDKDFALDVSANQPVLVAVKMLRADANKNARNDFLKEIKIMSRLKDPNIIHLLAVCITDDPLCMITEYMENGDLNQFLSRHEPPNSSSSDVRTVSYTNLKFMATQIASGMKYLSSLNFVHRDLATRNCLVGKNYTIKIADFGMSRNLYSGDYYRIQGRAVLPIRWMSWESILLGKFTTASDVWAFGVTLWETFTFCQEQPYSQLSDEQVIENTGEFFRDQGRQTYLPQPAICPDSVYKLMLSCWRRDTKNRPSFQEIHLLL
Put plainly: LanthaScreen Eu-Kinase Binding Assay (TR-FRET tracer displacement), DDR2. The settings on record: catalytic domain GST Tag DDR2; Kinase Tracer 178.
Excerpt: as §1

Molecules are shown by their SMILES. pEC50, pIC50: −log10 of the molar value.

T1 sequence (Q08345 610-905 limits assumed): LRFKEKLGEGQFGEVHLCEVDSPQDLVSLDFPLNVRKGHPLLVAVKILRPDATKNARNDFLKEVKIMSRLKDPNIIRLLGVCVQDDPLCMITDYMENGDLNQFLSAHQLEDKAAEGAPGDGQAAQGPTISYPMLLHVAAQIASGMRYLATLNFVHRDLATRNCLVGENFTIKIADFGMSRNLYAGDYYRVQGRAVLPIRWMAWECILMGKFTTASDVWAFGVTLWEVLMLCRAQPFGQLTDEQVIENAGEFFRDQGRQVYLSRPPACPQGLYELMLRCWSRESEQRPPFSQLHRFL

What is called pIC50 is the negative decadic logarithm of the IC50, by convention in mol/L. One may read the pEC50 as the EC50 on a negative log10 scale, so that one unit is a factor of ten. Turning to `O=c1ccnc2sc(-c3ccnc(Nc4cccc(N5CCN(CCO)CC5)c4)n3)c(-c3ccc(Cl)cc3)n12` [Compound 44, 3-(4-Chloro-phenyl)-2-(2-{3-[4-(2-hydroxy-ethyl)-piperazin-1-yl]-phenylamino}-pyrimidin-4-yl)-thiazolo[3,2-a]pyrimidin-5-one], the pIC50 is 8.56 in test [1] and 7.93 in test [3]. For the same compound, the pEC50 in test [2] is 7.60.
The matching figures for `CN1CCN(c2ccc(Nc3nccc(-c4sc5nccc(=O)n5c4-c4ccc(Cl)cc4)n3)cc2)CC1` [Compound 45, 3-(4-Chloro-phenyl)-2-{2-[4-(4-methyl-piperazin-1-yl)-phenylamino]-pyrimidin-4-yl}-thiazolo[3,2-a]pyrimidin-5-one]: 8.37, 7.90 and 8.12.
The matching figures for `COc1ccccc1-c1c(-c2ccnc(Nc3cccc(S(N)(=O)=O)c3)n2)sc2nccc(=O)n12` [Compound 46, 3-{4-[3-(2-Methoxy-phenyl)-5-oxo-5H-thiazolo[3,2-a]pyrimidin-2-yl]-pyrimidin-2-ylamino}-benzenesulfonamide]: 8.28, 7.70 and 7.51.
In the case of `COc1ccccc1-c1c(-c2ccnc(Nc3cccc(N4CCN(CCO)CC4)c3)n2)sc2nccc(=O)n12` [Compound 47, 2-(2-{3-[4-(2-Hydroxy-ethyl)-piperazin-1-yl]-phenylamino}-pyrimidin-4-yl)-3-(2-methoxy-phenyl)-thiazolo[3,2-a]pyrimidin-5-one], the pIC50 in test [1] was 8.02; in test [3], 7.61. Also, the pEC50 in test [2] is 7.56.
Consider `COc1ccccc1-c1c(-c2ccnc(Nc3ccc(N4CCN(C)CC4)cc3)n2)sc2nccc(=O)n12` [Compound 48, 3-(2-Methoxy-phenyl)-2-{2-[4-(4-methyl-piperazin-1-yl)-phenylamino]-pyrimidin-4-yl}-thiazolo[3,2-a]pyrimidin-5-one], for which the negative logarithm of the IC50 (pIC50) in test [1] is 7.71; in test [3], 7.15. Also, the pEC50 in test [2] is 7.56.
The matching figures for `COc1cccc(-c2c(-c3ccnc(Nc4cccc(S(N)(=O)=O)c4)n3)sc3nccc(=O)n23)c1` [Compound 49, 3-{4-[3-(3-Methoxy-phenyl)-5-oxo-5H-thiazolo[3,2-a]pyrimidin-2-yl]-pyrimidin-2-ylamino}-benzenesulfonamide]: 7.68, 6.99 and 7.00.
The matching figures for `COc1cccc(-c2c(-c3ccnc(Nc4cccc(N5CCN(CCO)CC5)c4)n3)sc3nccc(=O)n23)c1` [Compound 50, 2-(2-{3-[4-(2-Hydroxy-ethyl)-piperazin-1-yl]-phenylamino}-pyrimidin-4-yl)-3-(3-methoxy-phenyl)-thiazolo[3,2-a]pyrimidin-5-one]: 7.68, 7.10 and 7.48.
With `COc1cccc(-c2c(-c3ccnc(Nc4ccc(N5CCN(C)CC5)cc4)n3)sc3nccc(=O)n23)c1` [Compound 51, 3-(3-Methoxy-phenyl)-2-{2-[4-(4-methyl-piperazin-1-yl)-phenylamino]-pyrimidin-4-yl}-thiazolo[3,2-a]pyrimidin-5-one], the results for the pIC50 in test [1] and in test [3] were 8.08 and 7.56, respectively. In addition, the negative-log EC50 (pEC50) in test [2] was 7.72.
The matching figures for `COc1ccc(-c2c(-c3ccnc(Nc4cccc(S(N)(=O)=O)c4)n3)sc3nccc(=O)n23)cc1` [Compound 52, 3-{4-[3-(4-Methoxy-phenyl)-5-oxo-5H-thiazolo[3,2-a]pyrimidin-2-yl]-pyrimidin-2-ylamino}-benzenesulfonamide]: 7.96, 7.39 and 6.95.
The matching figures for `COc1ccc(-c2c(-c3ccnc(Nc4cccc(N5CCN(CCO)CC5)c4)n3)sc3nccc(=O)n23)cc1` [Compound 53, 2-(2-{3-[4-(2-Hydroxy-ethyl)-piperazin-1-yl]-phenylamino}-pyrimidin-4-yl)-3-(4-methoxy-phenyl)-thiazolo[3,2-a]pyrimidin-5-one]: 8.26, 7.77 and 7.71.
